The text below walks through data of PubChem BioAssay AID434987 (Southern Research Specialized Biocontainment Screening …, 2010).

SMILES strings stand for the structures. Active and inactive are the calls of the source. The rule behind the calls is not given here.

For this experiment, the system named is M. tuberculosis H37Rv growth inhibition with meropenem. Description: dose response, H37Rv, with and without meropenem (AID 434987).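 Note: growth over 7 days at 37 °C before Alamar Blue read on day 9.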
Where [1] appears, read: M. tuberculosis H37Rv growth inhibition, measured here: IC50 without meropenem.
[2] abbreviates: M. tuberculosis H37Rv growth inhibition, measured here: IC90 without meropenem.
The mark [3] stands for this setting: measured here: IC90 with meropenem.

On to `CCC(=O)NC(=S)Nc1ccc(NC(=O)c2ccccc2[N+](=O)[O-])cc1`, for which the IC50 is > 100 µM (inactive). The IC50 under setting [1] is greater than 100 µM. The IC90 under setting [2] was greater than 100 µM. This compound had an IC90 under setting [3] greater than 100 µM.
As for `CN(C)S(=O)(=O)n1cc(/C=C(\NC(=O)c2ccccc2)C(=O)NCCN2CCOCC2)c2ccccc21`, the IC50 is > 100 µM (inactive). For the same compound, the IC50 under setting [1] was greater than 100 µM. This compound had an IC90 under setting [2] greater than 100 µM. This compound also displayed an IC90 under setting [3] greater than 100 µM.
Regarding `O=C(N/N=C/c1cccc(NC(=O)c2ccc(Cl)cc2)c1)c1cccc(O)c1`, the IC50 was > 100 µM (inactive). Under setting [1], the 50% inhibitory concentration (IC50) was greater than 100 µM. Also, under setting [2], the IC90 is greater than 100 µM. For the same compound, the IC90 under setting [3] was greater than 100 µM.
With `COC(=O)c1sc(-c2ccc(C(C)(C)C)cc2)cc1NC(=O)CCC(=O)O`, the IC50 is 1.37 µM. Moreover, the IC50 under setting [1] was 23.8 µM. Under setting [2], this compound returned an IC90 greater than 100 µM. This compound registered an IC90 under setting [3] of 28.7 µM.
For `O=C(NNC(=O)c1ccc(Oc2cc(Cl)cc(Cl)c2)o1)c1ccccc1`, in that order: > 100 µM (inactive), greater than 100 µM, greater than 100 µM and greater than 100 µM.
For `CCc1cc2c(-c3ccccc3)cc(=O)oc2cc1OC(C)C(C)=O` (stereo not drawn), in that order: 45.6 µM (inactive), 47.4 µM, 53.8 µM and 48.5 µM.
For `COC(=O)c1c(CSc2cccc(C)c2)noc1C(=O)NCc1ccco1`, in that order: > 100 µM (inactive), greater than 100 µM, greater than 100 µM and greater than 100 µM.
With `O=c1cc(C(F)(F)F)c2sc(N3CCCCC3)nc2[nH]1`, the IC50 was 45.4 µM (inactive). The compound further returned a 50% inhibitory concentration (IC50) under setting [1] greater than 100 µM. The same compound returned an IC90 under setting [2] greater than 100 µM. Under setting [3], the IC90 was 49.3 µM.
In the case of `O=S1(=O)CCO[C@H]2Cc3ccccc3[C@H]2N1Cc1ccccc1`, the IC50 was > 100 µM (inactive). Under setting [1], this compound displayed an IC50 greater than 100 µM. For the same compound, under setting [2], the IC90 was greater than 100 µM. The IC90 under setting [3] was greater than 100 µM.
For the compound `CCOC(=O)c1c(C)oc2c1c(CN1CCN(C(=O)OCC)CC1)c(O)c1ccccc12`, the IC50 is 51.5 µM (inactive). Further, under setting [1], the IC50 stood at 51.2 µM. The IC90 under setting [2] was greater than 100 µM. Under setting [3], this compound returned an IC90 greater than 100 µM.
`COc1ccc(Cl)cc1NC(=O)NNC(=O)c1ccccn1`: the IC50 is 41.1 µM (inactive). Under setting [1], this compound had an IC50 greater than 100 µM. Also, under setting [2], the IC90 is greater than 100 µM. Moreover, the IC90 under setting [3] was greater than 100 µM.
Regarding `N#Cc1ccccc1/C=N/Nc1nc(-c2ccccc2)c2cc(Br)ccc2n1`, the IC50 was > 100 µM (inactive). The compound further had an IC50 under setting [1] greater than 100 µM. Under setting [2], the 90% effect concentration (IC90) is greater than 100 µM. The compound also registered an IC90 under setting [3] greater than 100 µM.
In the case of `Cc1cn([C@@H](CCCCNC(=O)OC(C)(C)C)C(=O)NCCCCCCCCCCC(=O)N2CCN(C(=O)OC(C)(C)C)CC2)nn1`, the IC50 was 97.7 µM (inactive). In addition, the IC50 under setting [1] is greater than 100 µM. The IC90 under setting [2] is greater than 100 µM. The 90% effect concentration (IC90) under setting [3] is greater than 100 µM.
As to `CCCCN1C(=O)c2ccc(C(=O)Nc3cccc(C)c3C)cc2C1=O`, the IC50 was > 100 µM (inactive). In addition, the IC50 under setting [1] was greater than 100 µM. For the same compound, the IC90 under setting [2] is greater than 100 µM. Further, the IC90 under setting [3] was greater than 100 µM.
Take `COc1cc(OC)cc(-c2cc3ccc(OC)cc3cn2)c1`: the IC50 was 29 µM (inactive). The compound also showed an IC50 under setting [1] of 39 µM. Further, the IC90 under setting [2] was found to be 85.8 µM. Under setting [3], the concentration for an effect of 90% (IC90) turned out to be 76.9 µM.
In the case of `CC(C)OC(=O)CSc1nc(N2CCOCC2)c2c(c1C#N)CC(C)(C)OC2`, the IC50 was > 100 µM (inactive). Further, the IC50 under setting [1] is greater than 100 µM. For the same compound, the IC90 under setting [2] was greater than 100 µM. Under setting [3], this compound gave a 90% effect concentration (IC90) greater than 100 µM.
In the case of `C=C(C)COc1ccc(-c2nc(N)ncc2Oc2ccc(OC)cc2)c(O)c1`, the IC50 was > 100 µM (inactive). Besides, the IC50 under setting [1] is greater than 100 µM. Moreover, under setting [2], the IC90 was greater than 100 µM. Further, under setting [3], the IC90 was greater than 100 µM.
Regarding `O=C(CNC(=O)c1ccc(Br)cc1)NCC(=O)OCc1ccc(Cl)cc1`, the IC50 was 12.4 µM. The compound also gave an IC50 under setting [1] of 56.9 µM. Under setting [2], the IC90 is greater than 100 µM. The compound also came in with an IC90 under setting [3] greater than 100 µM.
Take `CC(=O)c1sc(N/N=C\c2ccc(N(C)C)cc2)nc1C`: the IC50 was 49.9 µM (inactive). Further, under setting [1], the IC50 was greater than 100 µM. The compound further showed an IC90 under setting [2] greater than 100 µM. Further, the IC90 under setting [3] is greater than 100 µM.
As for `Cc1ccc(NC(=O)C2(c3ccccc3)CC2(Cl)Cl)cc1C` (stereo not drawn), the IC50 is > 100 µM (inactive). Moreover, under setting [1], the IC50 is greater than 100 µM. Under setting [2], this compound yielded a 90% effect concentration (IC90) greater than 100 µM. The IC90 under setting [3] was greater than 100 µM.
Consider `CCOC(=O)C1CCN(C(=O)CCCCn2c(=O)[nH]c3ccccc3c2=O)CC1`, for which the IC50 was > 100 µM (inactive). This compound had an IC50 under setting [1] greater than 100 µM. This compound also came in with an IC90 under setting [2] greater than 100 µM. Under setting [3], the IC90 is greater than 100 µM.
Regarding `CCNCC(O)c1cccc(O)c1` (stereo not drawn), the IC50 is > 100 µM (inactive). Moreover, the IC50 under setting [1] is greater than 100 µM. The IC90 under setting [2] was greater than 100 µM. Under setting [3], the IC90 was greater than 100 µM.

By IC50 is commonly meant the concentration needed to halve the response being measured. The IC90 is the point of the concentration-response curve where the effect stands at 90%.
